The record followed here is PMC10974603, “Cytotoxicity and Multi-Enzyme Inhibition of Nepenthes miranda Stem Extract on H838 Human Non-Small Cell Lung Cancer Cells and RPA32, Elastase, Tyrosinase, and Hyaluronidase Proteins” (Plants, 2024).

Data set [1] has as its target T1, elastase (Porcine pancreatic elastase) (Sus scrofa, UniProt P00772).
T1 construct: gene CELA1; native pancreatic enzyme, commercial preparation; mature active enzyme
Kind of data set: absorbance […] nm, p-nitroanilide release. In kind it is biochemical.

The target in data set [2] is T2, hyaluronidase from bovine testes type I-S (Bos taurus, UniProt Q2YDK3).
T2 construct: gene SPAM1; native bovine testes enzyme, commercial type I-S preparation
T2 sequence (Q2YDK3 36-553): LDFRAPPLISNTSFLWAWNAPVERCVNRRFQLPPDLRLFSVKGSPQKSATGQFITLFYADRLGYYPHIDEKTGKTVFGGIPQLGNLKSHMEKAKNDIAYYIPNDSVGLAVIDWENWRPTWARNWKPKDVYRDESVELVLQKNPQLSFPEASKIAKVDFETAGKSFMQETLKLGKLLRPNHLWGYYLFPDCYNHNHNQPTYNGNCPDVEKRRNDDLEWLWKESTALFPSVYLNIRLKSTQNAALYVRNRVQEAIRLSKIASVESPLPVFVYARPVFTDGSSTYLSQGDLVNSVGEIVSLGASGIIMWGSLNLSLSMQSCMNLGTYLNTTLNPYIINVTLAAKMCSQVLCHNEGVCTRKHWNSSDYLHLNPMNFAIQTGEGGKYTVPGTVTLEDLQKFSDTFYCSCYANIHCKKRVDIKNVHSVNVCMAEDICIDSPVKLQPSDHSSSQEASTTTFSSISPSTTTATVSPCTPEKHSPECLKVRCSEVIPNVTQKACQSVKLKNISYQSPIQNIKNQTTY
Kind of data set: turbidity with acidic albumin, absorbance […] nm. In kind it is biochemical. The note with it: hyaluronic acid substrate (0.03% stock); phosphate pH 5.35; 37 °C; 45 min; preincubation at pH 7.

Data set [3] has as its target huRPA32 (human, UniProt P15927 1-270). Kind of data set: EMSA; no extract; [Protein]50; 40 mM Tris-HCl pH 7.5, 50 mM NaCl, 37 °C 60 min, DNA 30 fmol/uL; 8% native PAGE in TBE. The note with it: protein: recombinant; tags: N-terminal EF (EcoRI site); label: 5' biotin; single-stranded.

Chain of huRPA32 (P15927 whole entry): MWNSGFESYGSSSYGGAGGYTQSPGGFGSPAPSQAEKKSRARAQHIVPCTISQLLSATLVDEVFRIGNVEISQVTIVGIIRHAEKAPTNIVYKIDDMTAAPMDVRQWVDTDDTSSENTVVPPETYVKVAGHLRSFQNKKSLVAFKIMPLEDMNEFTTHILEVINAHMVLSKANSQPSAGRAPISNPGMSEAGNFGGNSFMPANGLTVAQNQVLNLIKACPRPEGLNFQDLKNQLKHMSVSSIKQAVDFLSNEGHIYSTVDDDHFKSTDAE
T1 sequence (P00772 27-266): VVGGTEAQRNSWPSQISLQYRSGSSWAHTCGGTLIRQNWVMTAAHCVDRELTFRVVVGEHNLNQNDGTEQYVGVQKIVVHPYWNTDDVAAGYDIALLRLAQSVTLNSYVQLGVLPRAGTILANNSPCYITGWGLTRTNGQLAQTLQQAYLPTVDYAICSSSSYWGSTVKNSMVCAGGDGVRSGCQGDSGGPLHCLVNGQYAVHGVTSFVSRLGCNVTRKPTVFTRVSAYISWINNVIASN

Broadly, the IC50 is the point on the concentration scale where inhibition reaches its midpoint. Read a high IC50 as lower potency. In turn, `O=C(O[C@@H]1Cc2c(O)cc(O)cc2O[C@@H]1c1cc(O)c(O)c(O)c1)c1cc(O)c(O)c(O)c1` [EGCG] showed an IC50 in data set [1] of 9.62 µM.
Molecule `O=c1c(O)c(-c2cc(O)c(O)c(O)c2)oc2cc(O)cc(O)c12` [Myr] had an IC50 in data set [2] of 29.9 µM.

B1: dT25 (ssDNA)
DNA: TTTTTTTTTTTTTTTTTTTTTTTTT
For B1, in data set [3], the “apparent K (half saturation)” value was found to be 6.3 ± 0.5 µM.
